SMILES strings stand for the structures.

Data set [1] deals with Carbonic anhydrase 9 (Homo sapiens, UniProt Q16790). As to the kind of experiment: Inhibition of human carbonic anhydrase 9 assessed as inhibition constant incubated for 15 mins by phenol red dye based stopped flow CO2 hydration assay.
Data set [2] has as its target Carbonic anhydrase 4 (Homo sapiens, UniProt P22748). As to the kind of experiment: Inhibition of human carbonic anhydrase 4 assessed as inhibition constant preincubated for 15 mins and measured for 10 to 100 sec by phenol red dye based stopped flow CO2 hydration assay.
The target in data set [3] is Carbonic anhydrase 1 (Homo sapiens, UniProt P00915). The data set is described as follows: Inhibition of human carbonic anhydrase 1 assessed as inhibition constant preincubated for 15 mins and measured for 10 to 100 sec by phenol red dye based stopped flow CO2 hydration assay.
For data set [4], the target named is Carbonic anhydrase 2 (Homo sapiens, UniProt P00918). As to the kind of experiment: Inhibition of human carbonic anhydrase 2 assessed as inhibition constant preincubated for 15 mins and measured for 10 to 100 sec by phenol red dye based stopped flow CO2 hydration assay.
Data set [5] can be described thus: Cytotoxicity against HGF cells assessed as increase in cell viability at 10 uM incubated for 72 hrs by MTT assay relative to doxorubicin. Particulars: human. Type of data set: toxicity, cell-based.
The nature of data set [6]: Cytotoxicity against HGF cells assessed as increase in cell viability at 10 uM incubated for 72 hrs by MTT assay relative to control. Type of data set: toxicity, cell-based. Particulars: human.
Data set [7] is described as follows: Cytotoxicity against HGF cells assessed as cell viability at 50 uM incubated for 72 hrs by MTT assay relative to control. Type of data set: toxicity, cell-based. Particulars: human, read-out: Activity.
Data set [8] can be described thus: Cytotoxicity against HGF cells assessed as increase in cell viability at 50 uM incubated for 72 hrs by MTT assay relative to control. Type of data set: toxicity, cell-based. Particulars: human.
A short description of data set [9]: Cytotoxicity against HGF cells assessed as increase in cell viability at 10 uM incubated for 48 hrs by MTT assay relative to doxorubicin. Type of data set: toxicity, cell-based. As to conditions: human.
A short description of data set [10]: Cytotoxicity against HGF cells assessed as increase in cell viability at 50 uM incubated for 48 hrs by MTT assay relative to doxorubicin. Type of data set: toxicity, cell-based. Particulars: human.
The nature of data set [11]: Cytotoxicity against HGF cells assessed as increase in cell viability at 50 uM incubated for 48 hrs by MTT assay relative to control. Type of data set: toxicity, cell-based. As to conditions: human.
A short description of data set [12]: Cytotoxicity against HGF cells assessed as increase in cell viability at 10 uM incubated for 48 hrs by MTT assay relative to control. Type of data set: toxicity, cell-based. Particulars: human.

Sequence of Carbonic anhydrase 4 (P22748 whole entry): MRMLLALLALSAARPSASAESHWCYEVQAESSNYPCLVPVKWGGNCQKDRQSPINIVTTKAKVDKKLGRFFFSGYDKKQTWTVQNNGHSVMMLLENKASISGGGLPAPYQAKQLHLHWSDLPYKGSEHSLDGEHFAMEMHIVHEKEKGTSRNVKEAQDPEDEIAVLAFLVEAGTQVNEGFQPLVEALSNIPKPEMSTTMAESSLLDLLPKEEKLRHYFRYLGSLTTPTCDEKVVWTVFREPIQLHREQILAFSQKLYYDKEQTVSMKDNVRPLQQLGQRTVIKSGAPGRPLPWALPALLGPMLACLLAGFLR
Sequence of Carbonic anhydrase 1 (P00915 whole entry): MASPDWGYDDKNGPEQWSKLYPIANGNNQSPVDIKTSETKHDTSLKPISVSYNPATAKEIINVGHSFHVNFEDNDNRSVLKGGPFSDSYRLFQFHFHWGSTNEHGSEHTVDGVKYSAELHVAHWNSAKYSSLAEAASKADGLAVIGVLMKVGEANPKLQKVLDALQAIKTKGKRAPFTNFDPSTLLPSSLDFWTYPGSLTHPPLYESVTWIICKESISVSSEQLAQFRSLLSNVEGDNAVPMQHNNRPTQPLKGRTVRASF

As to `NS(=O)(=O)c1ccc(NC(=O)CSC(=S)N2CCN(c3ccc(F)c(Cl)c3)CC2)cc1`, the Ki in data set [1] came to 276 nM; in [2] it was 2440 nM; in [3], 2120 nM; in [4], 438 nM.
For `NS(=O)(=O)c1ccc2nc(NC(=O)CSC(=S)N3CCOCC3)sc2c1`, in that order: 26.8 nM, 8120 nM, 8.8 nM and 27.9 nM.
Consider `NS(=O)(=O)c1ccc2nc(NC(=O)CSC(=S)N3CCN(Cc4ccccc4)CC3)sc2c1`, for which the Ki in [1] came out at 25.9 nM; in [2], 5540 nM; in data set [3], 599 nM; in [4], 297 nM. The Activity result is listed as “Non-Toxic” in [5]; “Toxic” in data set [6]; “Toxic” in data set [8]; “Non-Toxic” in data set [9]; “Non-Toxic” in data set [10]. Also, the viability at 72 h, 50 µM in data set [7] was above 60%.
Regarding `NS(=O)(=O)c1ccc(NC(=O)CSC(=S)N2CCN(c3ccccc3)CC2)cc1`, the Ki in [1] stood at 744 nM; in data set [2], 1470 nM; in data set [3], 707 nM; in data set [4], 240 nM.
For `NS(=O)(=O)c1ccc2nc(NC(=O)CSC(=S)N3CCN(C(c4ccccc4)c4ccccc4)CC3)sc2c1`, in that order: 157 nM, 7640 nM, 9150 nM and 965 nM.
In the same order, the values of `CCN1CCN(C(=S)SCC(=O)Nc2ccc(S(N)(=O)=O)cc2)CC1` are 296 nM, 189 nM, 8.2 nM and 4.9 nM.
For `Cc1ccc(N2CCN(C(=S)SCC(=O)Nc3ccc(S(N)(=O)=O)cc3)CC2)cc1`, in that order: 1250 nM, 2310 nM, 2010 nM and 371 nM.
Turning to `CCOC(=O)N1CCN(C(=S)SCC(=O)Nc2ccc(S(N)(=O)=O)cc2)CC1`, the Ki in data set [1] turned out to be 136 nM; in [2], 779 nM; in data set [3], 54.8 nM; in [4], 5.7 nM.
In the same order, the values of `CCN1CCN(C(=S)SCC(=O)Nc2nc3ccc(S(N)(=O)=O)cc3s2)CC1` are 28.8 nM, 5930 nM, 56.1 nM and 2.5 nM.
Regarding `NS(=O)(=O)c1ccc(NC(=O)CSC(=S)N2CCOCC2)cc1`, the Ki worked out at 162 nM in data set [1], 649 nM in [2], 72.8 nM in [3] and 7.2 nM in [4].
`CN1CCN(C(=S)SCC(=O)Nc2nc3ccc(S(N)(=O)=O)cc3s2)CC1`: the Ki in data set [1] was 30.6 nM; in data set [2], 5090 nM; in data set [3], 20.8 nM; in data set [4], 4.1 nM.
Consider `NS(=O)(=O)c1ccc(NC(=O)CSC(=S)N2CCN(Cc3ccccc3)CC2)cc1`, for which the Ki in [1] was determined as 31.6 nM; in data set [2], 3400 nM; in data set [3] it was 84.1 nM; in data set [4], 17.4 nM.
Turning to `CN1CCN(C(=S)SCC(=O)Nc2ccc(S(N)(=O)=O)cc2)CC1`, the values for the Ki in data set [1] and in data set [2] were 255 nM and 420 nM, respectively.
Consider `NS(=O)(=O)c1ccc2nc(NC(=O)CSC(=S)N3CCN(c4ccccc4)CC3)sc2c1`, for which the Ki in data set [1] was 115 nM; in data set [2] it was above 10000 nM; in data set [3] it was 4190 nM; in data set [4] it was 91.4 nM.
As to `NS(=O)(=O)c1ccc2nc(NC(=O)CSC(=S)N3CCCCC3)sc2c1`, the Ki in data set [1] was 26.6 nM; in [2], 7440 nM; in data set [3] it was 85.6 nM; in data set [4] it was 3.8 nM.
For `NS(=O)(=O)c1ccc(NC(=O)CSC(=S)N2CCN(C(c3ccccc3)c3ccccc3)CC2)cc1`, in that order: 154 nM, 8450 nM, 1810 nM and 441 nM.
With `COc1cccc2c1C(=O)c1c(O)c3c(c(O)c1C2=O)C[C@@](O)(C(=O)CO)C[C@@H]3O[C@H]1C[C@H](N)[C@H](O)[C@H](C)O1` [DOXORUBICIN], the Activity result in [11], in data set [6], in data set [8] and in data set [12] was “Toxic” each time.
Regarding `COc1ccc(N2CCN(C(=S)SCC(=O)Nc3nc4ccc(S(N)(=O)=O)cc4s3)CC2)cc1`, the Ki in data set [1] is 30.9 nM; in [2] it was above 10000 nM; in [3] it was 958 nM; in [4] it was 363 nM. Moreover, the Activity entry in data set [5] is recorded as “Non-Toxic”; in [6] it was “Toxic”; in data set [8], “Toxic”; in data set [9], “Non-Toxic”; in data set [10] it was “Non-Toxic”. Besides, in [7], the viability at 72 h, 50 µM is above 60%.
As for `COc1ccccc1N1CCN(C(=S)SCC(=O)Nc2ccc(S(N)(=O)=O)cc2)CC1`, the Ki in data set [1] is 32.2 nM; in data set [2], above 10000 nM; in data set [3], 36.6 nM; in data set [4] it was 611 nM. The Activity entry is on record as “Non-Toxic” in data set [5]; “Toxic” in data set [11]; “Toxic” in data set [6]; “Toxic” in [8]; “Non-Toxic” in data set [9]; “Non-Toxic” in data set [10]. Moreover, the viability at 72 h, 50 µM in [7] is above 60%.
Consider `CCOC(=O)N1CCN(C(=S)SCC(=O)Nc2nc3ccc(S(N)(=O)=O)cc3s2)CC1`, for which the Ki is 22.1 nM in [1], above 10000 nM in data set [2], 7570 nM in data set [3] and 50.3 nM in data set [4]. Further, the Activity result was “Non-Toxic” in [5]; “Toxic” in [6]; “Toxic” in data set [8]; “Non-Toxic” in data set [9]; “Non-Toxic” in [10]. Besides, the viability at 72 h, 50 µM in [7] is above 60%.
For the molecule `COc1ccc(N2CCN(C(=S)SCC(=O)Nc3ccc(S(N)(=O)=O)cc3)CC2)cc1`, the Ki is 564 nM in [1], 901 nM in data set [2], 2080 nM in [3] and 298 nM in data set [4].
For the molecule `NS(=O)(=O)c1ccc(NC(=O)CSC(=S)N2CCCCC2)cc1`, the Ki is 261 nM in data set [1], 406 nM in [2], 27.5 nM in [3] and 6 nM in [4].
Turning to `COc1ccccc1N1CCN(C(=S)SCC(=O)Nc2nc3ccc(S(N)(=O)=O)cc3s2)CC1`, the Ki in data set [1] worked out at 30.3 nM; in [2], 7260 nM; in [3], 5030 nM; in data set [4] it was 51.5 nM. The Activity result in [5] is recorded as “Non-Toxic”; in [6], “Toxic”; in [8] it was “Toxic”; in data set [9], “Non-Toxic”; in [10] it was “Non-Toxic”. The viability at 72 h, 50 µM in data set [7] was above 60%.
On to `CC(=O)Nc1nnc(S(N)(=O)=O)s1` [ACETAZOLAMIDE], for which the Activity result is “Non-Toxic” in data set [5], “Toxic” in data set [8], “Non-Toxic” in data set [9] and “Non-Toxic” in data set [10]. In data set [7], the viability at 72 h, 50 µM was above 60%.

These data come from ChEMBL document CHEMBL5352444, “Development of benzene and benzothiazole-sulfonamide analogues as selective inhibitors of the tumor-associated carbonic anhydrase IX” (Eur J Med Chem, 2022).
